In patent US20230233569A1 (Revolution Medicines, Inc., priority 2020, published 2023) one finds IC50 data, which are given here for 17 compounds.

Structures are written as SMILES. pIC50: −log10 of the molar value. Where two headings read alike, the source gives them in different places. Bounds are passed on as bounds.

Common to all, as to experiment: Ras-Raf disruption / FRET / MOA assay (BRAF RBD)
Holding throughout (type): biochemical

For experiment [1], the target named is KRAS G12S (Homo sapiens, UniProt P01116+P62937, G12S). The settings on record: with Cyclophilin A. From the text: (§1) Disruption of […] Ras-binding Domain (BRAF^RBD) Interaction with K-Ras by Compounds of the Invention (also Called a FRET Assay or an MOA Assay)
KRAS G12S, sequence (P01116 1-169 isoform P01116-2 G12S limits assumed): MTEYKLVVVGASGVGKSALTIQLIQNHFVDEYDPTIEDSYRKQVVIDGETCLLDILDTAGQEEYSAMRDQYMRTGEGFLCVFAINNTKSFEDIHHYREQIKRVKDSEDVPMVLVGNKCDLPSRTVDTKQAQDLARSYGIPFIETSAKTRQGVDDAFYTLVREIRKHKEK
KRAS G12S, sequence (P62937 whole entry, the tested form may be a part): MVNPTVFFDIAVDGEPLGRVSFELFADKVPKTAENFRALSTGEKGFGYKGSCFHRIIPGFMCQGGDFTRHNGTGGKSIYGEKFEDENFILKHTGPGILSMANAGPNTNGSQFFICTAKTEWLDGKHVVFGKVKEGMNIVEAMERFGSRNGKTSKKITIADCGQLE
(§2) Note—The following protocol describes a procedure for monitoring disruption of K-Ras G12C (GMP-PNP) binding to BRAF^RBD by a compound of the invention. This protocol may also be executed substituting other Ras proteins or nucleotides, such as K-Ras G12D and K-Ras G13D.
(§3) The purpose of this biochemical assay was to measure the ability of test compounds to facilitate ternary complex formation between a nucleotide-loaded K-Ras isoform and Cyclophilin A; the resulting ternary complex disrupts binding to a BRAF^RBD construct, inhibiting K-Ras signaling through a RAF effector. Data is reported as IC50 values.
(§4) In assay buffer containing 25 mM HEPES pH 7.3, 0.002% Tween20, 0.1% BSA, 100 mM NaCl and 5 mM MgCl2, tagless Cyclophilin A, His6-K-Ras-GMPPNP, and GST-BRAF^RBD were combined in a 384-well assay plate at final concentrations of 25 μM, 12.5 nM, and 50 nM, respectively. Compound was present in plate wells as a 10-point 3-fold dilution series starting at a final concentration of 30 μM. After incubation at 25° C. for 3 hours, a mixture of anti-His Eu-W1024 and anti-GST allophycocyanin was then added to assay sample wells at final concentrations of 10 nM and 50 nM, respectively, and the reaction incubated for an additional 1.5 hours. […] Compounds that facilitate disruption of a K-Ras:RAF complex were identified as those eliciting a decrease in the TR-FRET ratio relative to DMSO control wells.

The target of experiment [2] is KRAS G13D (Homo sapiens, UniProt P01116+P62937, G13D). The settings on record: with Cyclophilin A.
KRAS G13D, sequence (P01116 1-169 isoform P01116-2 G13D limits assumed): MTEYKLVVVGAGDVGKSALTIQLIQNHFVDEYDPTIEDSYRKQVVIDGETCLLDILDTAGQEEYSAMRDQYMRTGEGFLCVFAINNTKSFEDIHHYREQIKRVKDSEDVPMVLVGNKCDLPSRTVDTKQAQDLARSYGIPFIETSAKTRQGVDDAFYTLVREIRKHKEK
KRAS G13D, sequence (P62937 whole entry): as the sequence (P62937 whole entry, the tested form may be a part) above
Description: as §1, §2, §3, §4

Experiment [3] concerns the target KRAS G12D (Homo sapiens, UniProt P01116+P62937, G12D). The settings on record: Ras-Raf disruption, with Cyclophilin A; read-out: KRAS G12D FRET data IC50.
Description: as §1, §2, §3, §4

The target in experiment [4] is KRAS G12V (Homo sapiens, UniProt P01116+P62937, G12V). The settings on record: with Cyclophilin A.
KRAS G12V, sequence (P01116 1-169 isoform P01116-2 G12V limits assumed): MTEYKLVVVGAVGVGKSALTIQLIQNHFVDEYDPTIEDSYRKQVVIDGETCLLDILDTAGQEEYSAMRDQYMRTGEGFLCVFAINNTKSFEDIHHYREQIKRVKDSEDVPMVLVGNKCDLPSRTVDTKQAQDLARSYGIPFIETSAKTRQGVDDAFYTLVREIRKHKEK
KRAS G12V, sequence (P62937 whole entry): as the sequence (P62937 whole entry, the tested form may be a part) above
Description: as §1, §2, §3, §4

In experiment [5] the target is KRAS G13C (Homo sapiens, UniProt P01116+P62937, G13C). Particulars: Ras-Raf disruption, with Cyclophilin A; read-out: KRAS G13C FRET data IC50.
KRAS G13C, sequence (P01116 1-169 isoform P01116-2 G13C limits assumed): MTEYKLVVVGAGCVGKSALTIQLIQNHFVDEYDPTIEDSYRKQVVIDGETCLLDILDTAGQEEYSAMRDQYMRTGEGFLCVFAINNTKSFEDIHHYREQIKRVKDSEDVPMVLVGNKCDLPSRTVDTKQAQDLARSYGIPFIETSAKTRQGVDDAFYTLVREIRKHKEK
KRAS G13C, sequence (P62937 whole entry): as the sequence (P62937 whole entry, the tested form may be a part) above
Description: as §1, §2, §3, §4

In experiment [6] the target is KRAS WT (Homo sapiens, UniProt P01116+P62937). The settings on record: with Cyclophilin A.
KRAS WT, sequence (P01116 1-169 isoform P01116-2 limits assumed): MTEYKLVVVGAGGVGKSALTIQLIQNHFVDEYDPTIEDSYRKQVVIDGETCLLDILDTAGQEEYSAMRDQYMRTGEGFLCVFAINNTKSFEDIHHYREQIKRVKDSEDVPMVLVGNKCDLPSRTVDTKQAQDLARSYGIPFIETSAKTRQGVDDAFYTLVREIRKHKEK
KRAS WT, sequence (P62937 whole entry): as the sequence (P62937 whole entry, the tested form may be a part) above
Description: as §1, §2, §3, §4

In experiment [7] the target is KRAS G12C (Homo sapiens, UniProt P01116+P62937, G12C). Particulars: Ras-Raf disruption, with Cyclophilin A; read-out: KRAS G12C FRET data IC50.
KRAS G12C, sequence (P01116 1-169 isoform P01116-2 G12C limits assumed): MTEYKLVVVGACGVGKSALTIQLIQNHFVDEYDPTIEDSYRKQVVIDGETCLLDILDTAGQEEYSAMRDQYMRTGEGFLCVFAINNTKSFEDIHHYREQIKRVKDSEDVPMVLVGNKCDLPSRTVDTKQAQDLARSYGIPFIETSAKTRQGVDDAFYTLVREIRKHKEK
KRAS G12C, sequence (P62937 whole entry): as the sequence (P62937 whole entry, the tested form may be a part) above
Description: as §1, §2, §3, §4
The purpose of this biochemical assay is to measure the ability of test compounds to facilitate ternary complex formation between a nucleotide-loaded Ras isoform and cyclophilin A; the resulting ternary complex disrupts binding to a BRAF^RBD construct, inhibiting Ras signaling through a RAF effector.
In assay buffer containing 25 mM HEPES pH 7.3, 0.002% Tween20, 0.1% BSA, 100 mM NaCl and 5 mM MgCl2, tagless Cyclophilin A, His6-K-Ras-GMPPNP (or other Ras variant), and GST-BRAF^RBD are combined in a 384-well assay plate at final concentrations of 25 μM, 12.5 nM and 50 nM, respectively. Compound is present in plate wells as a 10-point 3-fold dilution series starting at a final concentration of 30 μM. After incubation at 25° C. for 3 hours, a mixture of Anti-His Eu-W1024 and anti-GST allophycocyanin is then added to assay sample wells at final concentrations of 10 nM and 50 nM, respectively, and the reaction incubated for an additional 1.5 hours. […] Compounds that facilitate disruption of a Ras:RAF complex are identified as those eliciting a decrease in the TR-FRET ratio relative to DMSO control wells.

Experiment [8] concerns the target NRAS G12C (Homo sapiens, UniProt P01111+P62937, G12C). Particulars: NRAS G12C; read-out: NRAS G12C FRET data IC50.
Description: as §1, §2, §3, §4

[9] abbreviates: Ras-Raf disruption, read-out: KRAS G12S FRET data IC50.
The mark [10] stands for this setting: Ras-Raf disruption, read-out: KRAS G13D FRET data IC50.
Where [11] appears, read: Ras-Raf disruption, read-out: KRAS G12V FRET data IC50.
The mark [12] stands for this setting: Ras-Raf disruption, read-out: KRAS WT FRET data IC50.

KRAS G12D, sequence (P01116 1-169 isoform P01116-2 G12D limits assumed): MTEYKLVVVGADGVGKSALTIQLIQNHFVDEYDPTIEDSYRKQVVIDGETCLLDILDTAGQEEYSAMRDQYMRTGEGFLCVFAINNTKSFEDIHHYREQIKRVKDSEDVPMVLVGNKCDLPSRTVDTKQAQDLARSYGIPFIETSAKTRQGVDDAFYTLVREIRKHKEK
KRAS G12D, sequence (P62937 whole entry): as the sequence (P62937 whole entry, the tested form may be a part) above
NRAS G12C, sequence (P01111 whole entry G12C): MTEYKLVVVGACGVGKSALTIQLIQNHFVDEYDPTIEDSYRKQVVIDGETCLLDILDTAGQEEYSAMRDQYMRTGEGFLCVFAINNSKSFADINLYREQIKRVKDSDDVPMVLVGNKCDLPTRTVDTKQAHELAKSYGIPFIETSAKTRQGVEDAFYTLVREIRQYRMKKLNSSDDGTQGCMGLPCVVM
NRAS G12C, sequence (P62937 whole entry): as the sequence (P62937 whole entry, the tested form may be a part) above

Consider `CCn1c(-c2cnccc2COC)c2c3cc(ccc31)-c1cccc(c1)C[C@H](NC(=O)[C@H](C(C)C)N(C)C(=O)CCN=C=NCCCSC)C(=O)N1CCC[C@H](N1)C(=O)OCC(C)(C)C2` [16 A and B], for which the negative-log IC50 (pIC50) in experiment [1] (setting [9]) and in experiment [2] (setting [10]) was less than 5.00 each time.

Consider `CCn1c(-c2cnccc2COC)c2c3cc(ccc31)-c1cccc(c1)C[C@H](NC(=O)[C@H](C(C)C)N(C)C(=O)CCN=C=NCCCN1CCOCC1)C(=O)N1CCC[C@H](N1)C(=O)OCC(C)(C)C2` [17 A and B], for which the pIC50 in experiment [3] was 5.00 to 6.00; in experiment [1] (setting [9]), less than 5.00; in experiment [4] (setting [11]), less than 5.00; in experiment [5], 5.00 to 6.00; in experiment [6] (setting [12]) it was less than 5.00; in experiment [7], 7.00 to 8.00.

With `CCn1c(-c2cnccc2COC)c2c3cc(ccc31)-c1cccc(c1)C[C@H](NC(=O)[C@H](C(C)C)N(C)C(=O)CCN=C=NCc1ccc(OC)cc1)C(=O)N1CCC[C@H](N1)C(=O)OCC(C)(C)C2` [18 A and B], the pIC50 in experiment [1] (setting [9]), in experiment [4] (setting [11]) and in experiment [6] (setting [12]) was less than 5.00 each time.

As for `CCn1c(-c2cnccc2COC)c2c3cc(ccc31)-c1cccc(c1)C[C@H](NC(=O)[C@H](C(C)C)N(C)C(=O)CCN=C=NCc1ccccc1)C(=O)N1CCC[C@H](N1)C(=O)OCC(C)(C)C2` [19 A and B], the pIC50 in experiment [1] (setting [9]), in experiment [4] (setting [11]) and in experiment [6] (setting [12]) was less than 5.00 in each case.

As for `CCn1c(-c2cnccc2COC)c2c3cc(ccc31)-c1cccc(c1)C[C@H](NC(=O)[C@H](C(C)C)N(C)C(=O)CCN=C=Nc1ccccc1OC)C(=O)N1CCC[C@H](N1)C(=O)OCC(C)(C)C2` [20 A and B], the pIC50 in experiment [3], in experiment [1] (setting [9]), in experiment [4] (setting [11]), in experiment [2] (setting [10]) and in experiment [6] (setting [12]) was less than 5.00 in each case.

Turning to `CCn1c(-c2cnccc2COC)c2c3cc(ccc31)-c1cc(O)cc(c1)C[C@H](NC(=O)[C@H](C(C)C)N(C)C(=O)CN(C)C(=O)C1CN1)C(=O)N1CCC[C@H](N1)C(=O)OCC(C)(C)C2` (some centres unmarked) [32 A and B], the pIC50 in experiment [1] (KRAS G12S FRET data IC50, Ras-Raf disruption) was less than 5.00; in experiment [4] (KRAS G12V FRET data IC50, Ras-Raf disruption), less than 5.00; in experiment [2] (KRAS G13D FRET data IC50, Ras-Raf disruption) it was 5.00 to 6.00; in experiment [6] (KRAS WT FRET data IC50, Ras-Raf disruption), less than 5.00.

As for `CCn1c(-c2cnccc2COC)c2c3cc(ccc31)-c1cc(O)cc(c1)C[C@H](NC(=O)[C@H](C(C)C)N(C)C(=O)c1ccc(NC(=O)[C@H]3CN3)cn1)C(=O)N1CCC[C@H](N1)C(=O)OCC(C)(C)C2` [47 A and B], the pIC50 is 5.00 to 6.00 in experiment [3] and 7.00 to 8.00 in experiment [5].

As to `CCn1c(-c2cnccc2COC)c2c3cc(ccc31)-c1cccc(c1)C[C@H](NC(=O)[C@H](C(C)C)N(C)C(=O)CCN=C=NCc1ccc(OC)cc1OC)C(=O)N1CCC[C@H](N1)C(=O)OCC(C)(C)C2` [61 A and B], the negative-log IC50 (pIC50) in experiment [3], in experiment [1] (setting [9]), in experiment [4] (setting [11]), in experiment [5], in experiment [2] (setting [10]) and in experiment [6] (setting [12]) was less than 5.00 each time.

For `CCn1c(-c2cnccc2COC)c2c3cc(ccc31)-c1cccc(c1)C[C@H](NC(=O)[C@H](C(C)C)N(C)C(=O)CC1(N=C=Nc3ccc(OC)cc3)CC1)C(=O)N1CCC[C@H](N1)C(=O)OCC(C)(C)C2` [65 A and B], the negative logarithm of the IC50 (pIC50) in experiment [3], in experiment [1] (setting [9]), in experiment [4] (setting [11]), in experiment [2] (setting [10]), in experiment [6] (setting [12]) and in experiment [8] was less than 5.00 throughout.

In the case of `CCn1c(-c2cnccc2COC)c2c3cc(ccc31)-c1cccc(c1)C[C@H](NC(=O)[C@H](C(C)C)N(C)C(=O)CCN=C=NCCc1cccs1)C(=O)N1CCC[C@H](N1)C(=O)OCC(C)(C)C2` [68 A and B], the pIC50 in experiment [1] (setting [9]), in experiment [4] (setting [11]), in experiment [2] (setting [10]) and in experiment [6] (setting [12]) was less than 5.00 in each case.

In the case of `CCn1c(-c2cnccc2COC)c2c3cc(ccc31)-c1cccc(c1)C[C@H](NC(=O)[C@H](C(C)C)N(C)C(=O)CCCN=C=NCCCOC)C(=O)N1CCC[C@H](N1)C(=O)OCC(C)(C)C2` [69 A and B], in experiment [4] (setting [11]), the negative logarithm of the IC50 (pIC50) is 5.00 to 6.00.

For `CCn1c(-c2cnccc2COC)c2c3cc(ccc31)-c1cccc(c1)C[C@H](NC(=O)[C@H](C(C)C)N(C)C(=O)[C@@H]1CCC(N=C=Nc3ccc(OC)cc3)C1)C(=O)N1CCC[C@H](N1)C(=O)OCC(C)(C)C2` (some centres unmarked) [70 A and B], the pIC50 in experiment [1] (setting [9]), in experiment [4] (setting [11]), in experiment [2] (setting [10]) and in experiment [6] (setting [12]) was less than 5.00 throughout.

For the compound `CCn1c(-c2cnccc2COC)c2c3cc(ccc31)-c1cccc(c1)C[C@H](NC(=O)[C@H](C(C)C)N(C)C(=O)C1CCC(N=C=Nc3ccc(OC)cc3)C1)C(=O)N1CCC[C@H](N1)C(=O)OCC(C)(C)C2` (some centres unmarked) [71 A and B], the pIC50 in experiment [3], in experiment [1] (setting [9]), in experiment [4] (setting [11]), in experiment [5], in experiment [2] (setting [10]) and in experiment [6] (setting [12]) was less than 5.00 in each case.

Regarding `CCn1c(-c2cnccc2COC)c2c3cc(ccc31)-c1cccc(c1)C[C@H](NC(=O)[C@H](C(C)C)N(C)C(=O)CCN=C=NC1(COC)CC1)C(=O)N1CCC[C@H](N1)C(=O)OCC(C)(C)C2` [72 A and B], the negative-log IC50 (pIC50) is less than 5.00 in experiment [1] (setting [9]), less than 5.00 in experiment [6] (setting [12]) and 6.00 to 7.00 in experiment [8].

In the case of `CCn1c(-c2cnccc2COC)c2c3cc(ccc31)-c1cccc(c1)C[C@H](NC(=O)[C@H](C(C)C)N(C)C(=O)CCN=C=NC(C)(C)C)C(=O)N1CCC[C@H](N1)C(=O)OCC(C)(C)C2` [79 A and B], the pIC50 in experiment [3], in experiment [1] (setting [9]) and in experiment [2] (setting [10]) was less than 5.00 each time.

With `CCn1c(-c2cnccc2COC)c2c3cc(ccc31)-c1cccc(c1)C[C@H](NC(=O)[C@H](C(C)C)N(C)C(=O)CCN=C=NCc1ccccc1C)C(=O)N1CCC[C@H](N1)C(=O)OCC(C)(C)C2` [82 A and B], the pIC50 in experiment [1] (setting [9]), in experiment [4] (setting [11]), in experiment [5], in experiment [2] (setting [10]) and in experiment [6] (setting [12]) was less than 5.00 each time.

Regarding `CCn1c(-c2cccnc2[C@H](C)OC)c2c3cc(ccc31)-c1cc(O)cc(c1)C[C@H](NC(=O)[C@H](C(C)C)N(C)C(=O)N1CCN(C(=O)[C@@H]3CN3)C(=O)C1)C(=O)N1CCC[C@H](N1)C(=O)OCC(C)(C)C2` [Example 197], the pIC50 in experiment [1] (setting [9]), in experiment [4] (setting [11]), in experiment [6] (setting [12]), in experiment [8] and in experiment [7] was 7.00 to 8.00 throughout.

By pIC50 is commonly meant the negative decadic logarithm of the IC50, by convention in mol/L.
